Results as given in patent publication EP0373543A2, “Diagnostic media and assay for detecting fungicide resistance” (BASF Corporation, priority 1988, dated 1990).

How the values were obtained:
Format in all cases: cell-based
Botrytis cinerea [1] = assay: Spore germination on agar-dextrose medium containing vinclozolin, microscopic examination (Example 1); settings: 18 hours room temperature
Experimental: (§1) Resistant and sensitive fungi were initially obtained from crops of cultivated fruit in the field. The percent germination reported below was calculated by microscopic evaluation. An average of four fields of view per plate was examined with each field of view having a total of about 100 to 300 spores. The total number of spores in each field of view was counted then either the number germinated or not germinated, whichever was easiest to count, was determined. These numbers were then combined appropriately and the percent germination calculated. Unless otherwise noted, resistant isolates are given a numerical designation and sensitive isolates a letter designation.
Botrytis cinerea of known sensitivity and resistance to vinclozolin were cultured on potato dextrose agar prepared according to manufacturer's directions and Preparation Example 2 for 2 weeks and induced to sporulate under long wave ultraviolet light. Spores were transferred using a sterile cotton tipped swab to a solid medium containing 20 g of agar, 20 g dextrose and the amount of vinclozolin in parts per million per liter of media shown in Table 1 below. The innoculated media was incubated at room temperature for 18 hours and microscopically examined for germination; the results of this assay are set forth below in Table 1 where "BC" means Botrytis cinerea.

Botrytis cinerea [2] = assay: Microscopic spore germination on the Example 3 plates; settings: microscopically examined
Experimental: as §1
(§2) Diagnostic media was prepared substantially as described above in Preparation Example 1 except that bromothymol blue rather than bromcresol purple and only 4 g of dextrose was used per liter and the pH adjusted to 7.5, 8.0 and 8.5. These media were then inoculated with spores of either Botrytis cinerea or Rhizopus nigricans isolates substantially as previously described. The inoculated media was then incubated for 18 hours at room temperature and the results recorded below in Table III.
Strong color reactions were only observed from the resistant Botrytis cinerea isolates. Only slight reactions, at most, occurred from the Rhizopus nigricans inoculations. Example 4

Rhizopus nigricans [3] = assay: Color change diameter on bromothymol blue diagnostic media at pH 7.5-8.5 (Example 3); design: key: T = only slight color change
Experimental: as §2

Rhizopus nigricans [4] = assay: Color change diameter on bromcresol purple media containing vinclozolin (Example 2); design: key to COLOR CHANGE DIAMETER: T = only slight color change; settings: for COLOR CHANGE DIAMETER: 20 hours
Experimental: (§3) To a stock solution of 0.4 g bromcresol purple in 260 mls of 0.01N sodium hydroxide, either 40 g of potato dextrose agar (PDA) or 40 g dextrose and 20 g agar (WA-dextrose medium) were added and the total volume brought up to 1 liter using distilled water. After autoclaving the media, a solution of vinclozolin in 5 mls of ethanol was added to afford 5 or 10 ppm concentrations and dispensed into petri plates (10 ml/plate). Sporulating cultures of Botrytis cinerea and Rhizopus nigricans (also known as Rhizopus stolonifer) were grown for two weeks on potato dextrose agar. Spores were transferred to the diagnostic media using sterile cotton tipped swabs and incubated for 20 hours at room temperature. The media was macroscopically examined and the diameter of color change detectable in the media was then measured.

Botrytis cinerea [5] = assay: as above; design: key to COLOR CHANGE DIAMETER: T = only slight color change; settings: for COLOR CHANGE DIAMETER: 20 hours
Experimental: as §3

Botrytis cinerea [6] = assay: Color change response at varied vinclozolin concentration (Example 4); design: key: T = only slight color change; settings: pH 5.5, about 48 hours
Experimental: Diagnostic media was prepared substantially as described above in Preparation Example 1 and the pH adjusted to 5.5 except that the vinclozolin concentrations in the media varied from about 10 ppm to 1000 ppm. The media was inoculated with 1 vinclozolin sensitive (BC-A) and 1 vinclozolin resistant isolate (BC-4) of Botrytis cinerea) and incubated at room temperature for about 48 hours.

SMILES: C=CC1(C)OC(=O)N(c2cc(Cl)cc(Cl)c2)C1=O (stereo not drawn) [vinclozolin]
- Percent Germination (Botrytis cinerea [1]; isolate BC-1 resistant, vinclozolin 2.5 ppm): 100%
- Percent Germination (Botrytis cinerea [1]; isolate BC-1 resistant, vinclozolin 5.0 ppm): 100%
- Percent Germination (Botrytis cinerea [1]; isolate BC-1 resistant, vinclozolin 10.0 ppm): 100%
- Percent Germination (Botrytis cinerea [1]; isolate BC-2 res., vinclozolin 2.5 ppm): 100%
- Percent Germination (Botrytis cinerea [1]; isolate BC-2 res., vinclozolin 5.0 ppm): 100%
- Percent Germination (Botrytis cinerea [1]; isolate BC-2 res., vinclozolin 10.0 ppm): 100%
- Percent Germination (Botrytis cinerea [1]; isolate BC-3 res., vinclozolin 2.5 ppm): 100%
- Percent Germination (Botrytis cinerea [1]; isolate BC-3 res., vinclozolin 5.0 ppm): 90%
- Percent Germination (Botrytis cinerea [1]; isolate BC-3 res., vinclozolin 10.0 ppm): 80%
- Percent Germination (Botrytis cinerea [1]; isolate BC-4 res., vinclozolin 2.5 ppm): 100%
- Percent Germination (Botrytis cinerea [1]; isolate BC-4 res., vinclozolin 5.0 ppm): 100%
- Percent Germination (Botrytis cinerea [1]; isolate BC-4 res., vinclozolin 10.0 ppm): 100%
- Percent Germination (Botrytis cinerea [1]; isolate BC-5 res., vinclozolin 2.5 ppm): 100%
- Percent Germination (Botrytis cinerea [1]; isolate BC-5 res., vinclozolin 5.0 ppm): 100%
- Percent Germination (Botrytis cinerea [1]; isolate BC-5 res., vinclozolin 10.0 ppm): 90%
- Percent Germination (Botrytis cinerea [1]; isolate BC-6 res., vinclozolin 2.5 ppm): 100%
- Percent Germination (Botrytis cinerea [1]; isolate BC-6 res., vinclozolin 5.0 ppm): 100%
- Percent Germination (Botrytis cinerea [1]; isolate BC-6 res., vinclozolin 10.0 ppm): 100%
- Percent Germination (Botrytis cinerea [1]; isolate BC-A sensitive, vinclozolin 2.5 ppm): 0%
- Percent Germination (Botrytis cinerea [1]; isolate BC-A sensitive, vinclozolin 5.0 ppm): 0%
- Percent Germination (Botrytis cinerea [1]; isolate BC-A sensitive, vinclozolin 10.0 ppm): 0%
- Percent Germination (Botrytis cinerea [1]; isolate BC-B sens., vinclozolin 2.5 ppm): 0%
- Percent Germination (Botrytis cinerea [1]; isolate BC-B sens., vinclozolin 5.0 ppm): 0%
- Percent Germination (Botrytis cinerea [1]; isolate BC-B sens., vinclozolin 10.0 ppm): 0%
- Percent Germination (Botrytis cinerea [1]; isolate BC-C sens., vinclozolin 2.5 ppm): 0%
- Percent Germination (Botrytis cinerea [1]; isolate BC-C sens., vinclozolin 5.0 ppm): 0%
- Percent Germination (Botrytis cinerea [1]; isolate BC-C sens., vinclozolin 10.0 ppm): 0%
- Percent Germination (Botrytis cinerea [1]; isolate BC-D sens., vinclozolin 2.5 ppm): 0%
- Percent Germination (Botrytis cinerea [1]; isolate BC-D sens., vinclozolin 5.0 ppm): 0%
- Percent Germination (Botrytis cinerea [1]; isolate BC-D sens., vinclozolin 10.0 ppm): 0%
- spore germination (Botrytis cinerea [2]; all of the resistant isolates): greater than 90%
- spore germination (Botrytis cinerea [2]; sensitive isolate spores): no germination
- DIAMETER OF COLOR CHANGE (Rhizopus nigricans [3]; isolate RP-3, pH 7.5, 18 hours): T
- DIAMETER OF COLOR CHANGE (Rhizopus nigricans [3]; isolate RP-3, pH 8.0, 18 hours): T
- DIAMETER OF COLOR CHANGE (Rhizopus nigricans [3]; isolate RP-3, pH 8.5, 18 hours): T
- DIAMETER OF COLOR CHANGE (Rhizopus nigricans [3]; isolate RP-4, pH 7.5, 18 hours): T
- DIAMETER OF COLOR CHANGE (Rhizopus nigricans [3]; isolate RP-4, pH 8.0, 18 hours): T
- DIAMETER OF COLOR CHANGE (Rhizopus nigricans [3]; isolate RP-4, pH 8.5, 18 hours): T
- color reaction (Rhizopus nigricans [4]; Rhizopus nigricans isolates, PDA media containing 5 ppm of vinclozolin, after 4 days): allowed 1 of the Rhizopus nigricans contaminated isolates to react
- COLOR CHANGE DIAMETER (Rhizopus nigricans [4]; isolate RP-1, PDA media, vinclozolin 5.0ppm): T
- COLOR CHANGE DIAMETER (Rhizopus nigricans [4]; isolate RP-1, PDA media, vinclozolin 10.0ppm): 0 mm
- COLOR CHANGE DIAMETER (Rhizopus nigricans [4]; isolate RP-1, WA-dextrose media, vinclozolin 5.0ppm): 0 mm
- COLOR CHANGE DIAMETER (Rhizopus nigricans [4]; isolate RP-1, WA-dextrose media, vinclozolin 10.0ppm): 0 mm
- COLOR CHANGE DIAMETER (Rhizopus nigricans [4]; isolate RP-2, PDA media, vinclozolin 5.0ppm): T
- COLOR CHANGE DIAMETER (Rhizopus nigricans [4]; isolate RP-2, PDA media, vinclozolin 10.0ppm): 0 mm
- COLOR CHANGE DIAMETER (Rhizopus nigricans [4]; isolate RP-2, WA-dextrose media, vinclozolin 5.0ppm): 0 mm
- COLOR CHANGE DIAMETER (Rhizopus nigricans [4]; isolate RP-2, WA-dextrose media, vinclozolin 10.0ppm): 0 mm
- COLOR CHANGE DIAMETER (Botrytis cinerea [5]; isolate BC-1 res., PDA media, vinclozolin 5.0ppm): 5 mm
- COLOR CHANGE DIAMETER (Botrytis cinerea [5]; isolate BC-1 res., PDA media, vinclozolin 10.0ppm): 0 mm
- COLOR CHANGE DIAMETER (Botrytis cinerea [5]; isolate BC-1 res., WA-dextrose media, vinclozolin 5.0ppm): T^a
- COLOR CHANGE DIAMETER (Botrytis cinerea [5]; isolate BC-1 res., WA-dextrose media, vinclozolin 10.0ppm): 5 mm
- COLOR CHANGE DIAMETER (Botrytis cinerea [5]; isolate BC-2 res., PDA media, vinclozolin 5.0ppm): 10 mm
- COLOR CHANGE DIAMETER (Botrytis cinerea [5]; isolate BC-2 res., PDA media, vinclozolin 10.0ppm): 0 mm
- COLOR CHANGE DIAMETER (Botrytis cinerea [5]; isolate BC-2 res., WA-dextrose media, vinclozolin 5.0ppm): 10 mm
- COLOR CHANGE DIAMETER (Botrytis cinerea [5]; isolate BC-2 res., WA-dextrose media, vinclozolin 10.0ppm): 5 mm
- COLOR CHANGE DIAMETER (Botrytis cinerea [5]; isolate BC-3 resistant, PDA media, vinclozolin 5.0ppm): 10 mm
- COLOR CHANGE DIAMETER (Botrytis cinerea [5]; isolate BC-3 resistant, PDA media, vinclozolin 10.0ppm): 0 mm
- COLOR CHANGE DIAMETER (Botrytis cinerea [5]; isolate BC-3 resistant, WA-dextrose media, vinclozolin 5.0ppm): 10 mm
- COLOR CHANGE DIAMETER (Botrytis cinerea [5]; isolate BC-3 resistant, WA-dextrose media, vinclozolin 10.0ppm): 10 mm
- COLOR CHANGE DIAMETER (Botrytis cinerea [5]; isolate BC-A sensitive, PDA media, vinclozolin 5.0ppm): 0 mm
- COLOR CHANGE DIAMETER (Botrytis cinerea [5]; isolate BC-A sensitive, PDA media, vinclozolin 10.0ppm): 0 mm
- COLOR CHANGE DIAMETER (Botrytis cinerea [5]; isolate BC-A sensitive, WA-dextrose media, vinclozolin 5.0ppm): 0 mm
- COLOR CHANGE DIAMETER (Botrytis cinerea [5]; isolate BC-A sensitive, WA-dextrose media, vinclozolin 10.0ppm): 0 mm
- COLOR CHANGE DIAMETER (Botrytis cinerea [5]; isolate BC-B sens., PDA media, vinclozolin 5.0ppm): 0 mm
- COLOR CHANGE DIAMETER (Botrytis cinerea [5]; isolate BC-B sens., PDA media, vinclozolin 10.0ppm): 0 mm
- COLOR CHANGE DIAMETER (Botrytis cinerea [5]; isolate BC-B sens., WA-dextrose media, vinclozolin 5.0ppm): 0 mm
- COLOR CHANGE DIAMETER (Botrytis cinerea [5]; isolate BC-B sens., WA-dextrose media, vinclozolin 10.0ppm): 0 mm
- COLOR CHANGE DIAMETER (Botrytis cinerea [5]; isolate BC-D sens., PDA media, vinclozolin 5.0ppm): 0 mm
- COLOR CHANGE DIAMETER (Botrytis cinerea [5]; isolate BC-D sens., PDA media, vinclozolin 10.0ppm): 0 mm
- COLOR CHANGE DIAMETER (Botrytis cinerea [5]; isolate BC-D sens., WA-dextrose media, vinclozolin 5.0ppm): 0 mm
- COLOR CHANGE DIAMETER (Botrytis cinerea [5]; isolate BC-D sens., WA-dextrose media, vinclozolin 10.0ppm): 0 mm
- color change (Botrytis cinerea [5]; resistant isolates, PDA media containing 10 ppm of vinclozolin, after 4 days): no measurable color change
- Color Change Response (Botrytis cinerea [6]; isolate BC-4 (vinclozolin resistant), vinclozolin 500 ppm): T
- Color Change Response (Botrytis cinerea [6]; isolate BC-4 (vinclozolin resistant), vinclozolin 1000 ppm): T
- Color Change Response (Botrytis cinerea [6]; isolate BC-A (vinclozolin sensitive), vinclozolin 1000 ppm): T
